± gives the expanded uncertainty stated by the source.
Settings: Crystal; visual observation

Normal melting temperature: 78.70 ± 0.48 °C
Compound: OCc1cn(Cc2ccccc2)nn1 [(1-benzyl-1H-1,2,3-triazol-4-yl)methanol]

Reference: the NIST ThermoML archive (doi:10.1016/j.tca.2016.01.009)
